Experimental data: ChEMBL document CHEMBL1800029, “N-aryl-benzimidazolones as novel small molecule HSP90 inhibitors” (Bioorg Med Chem Lett, 2010)
pEC50, pIC50: −log10 of the molar value.

What was measured:
[1] = target: T1, Heat shock protein HSP 90-alpha (Homo sapiens, UniProt P07900); assay: Inhibition of Hsp90alpha in human SKBR3 cells assessed as up-regulation of HSP70 protein by Western blot analysis; assay type: cell-based, SK-BR-3
[2] = target: T1, Heat shock protein HSP 90-alpha
Description: Inhibition of Hsp90alpha ATPase activity by malachite green ATP-ase assay

[3] = target: T1, Heat shock protein HSP 90-alpha; assay: Inhibition of Hsp90alpha in human SKBR3 cells assessed as ErbB2 degradation by Western blot analysis; assay type: cell-based, SK-BR-3
SK-BR-3 = assay: Cytotoxicity against human SKBR3 cells; assay type: functional, cell-based
[4] = target: T1, Heat shock protein HSP 90-alpha; assay: Inhibition of Hsp90alpha in human H1299 cells assessed as HIF-1alpha degradation by luciferase reporter assay; assay type: cell-based
[5] = target: T1, Heat shock protein HSP 90-alpha; remark: listed apart in the source
Description: Binding affinity to Hsp90alpha N-terminal ATPase domain by TR-FRET assay based competitive binding assay

Structure (SMILES) | pIC50 [2] | pIC50 [5] | further results
O=c1[nH]c2cc(CNS(=O)(=O)c3cccc4ccccc34)ccc2n1-c1cc(Cl)c(O)cc1O | 6.26 |  | pEC50 [1]: 7.22; pEC50 [3]: > 7.00; pEC50 (SK-BR-3): 7.92; pEC50 [4]: 6.72
O=c1[nH]c2ccccc2n1-c1ccc(O)cc1O | 4.07 |  | 
O=c1[nH]c2ccccc2n1-c1cc(O)ccc1O | 3.70 | 4.46 | 
O=c1[nH]c2ccccc2n1-c1cc(O)c(Cl)cc1O | 3.70 | 5.60 | 
CS(=O)(=O)NCc1ccc2c(c1)[nH]c(=O)n2-c1cc(Cl)c(O)cc1O | 4.60 | 7.30 | 
O=c1[nH]c2cc(C(F)(F)F)ccc2n1-c1cc(C(F)(F)F)ccc1O | 4.09 | 5.48 | 
CCNC(=O)c1n[nH]c(-c2cc(Cl)c(O)cc2O)c1-c1ccc(OC)cc1 |  |  | pEC50 (SK-BR-3): 6.60
O=c1[nH]c2ccccc2n1-c1cc(C(F)(F)F)ccc1O | 3.90 | 5.63 | 
CC(=O)NCc1ccc2c(c1)[nH]c(=O)n2-c1cc(Cl)c(O)cc1O | 4.61 | 7.40 | 
C=CCNC1=C2C[C@@H](C)C[C@H](OC)[C@H](O)[C@@H](C)/C=C(\C)[C@H](OC(N)=O)[C@@H](OC)/C=C\C=C(/C)C(=O)NC(=CC1=O)C2=O [TANESPIMYCIN] |  |  | pEC50 (SK-BR-3): 7.60

Second part, led by results:

pIC50 [2] | pIC50 [5] | Structure (SMILES) | further results
4.85 | 7.48 | CCNC(=O)NCc1ccc2c(c1)[nH]c(=O)n2-c1cc(Cl)c(O)cc1O | 
5.47 | 7.57 | O=c1[nH]c2cc(CNS(=O)(=O)c3ccccc3)ccc2n1-c1cc(Cl)c(O)cc1O | 
4.81 | 7.22 | O=C(NCc1ccc2c(c1)[nH]c(=O)n2-c1cc(Cl)c(O)cc1O)Nc1ccccc1 | 
5.94 | 7.33 | O=c1[nH]c2cc(CNS(=O)(=O)c3ccc4ccccc4c3)ccc2n1-c1cc(Cl)c(O)cc1O | 
4.64 | 7.14 | O=C(NCc1ccc2c(c1)[nH]c(=O)n2-c1cc(Cl)c(O)cc1O)c1ccccc1 | 
4.82 | 7.27 | O=c1[nH]c2ccccc2n1-c1cc(Cl)c(O)cc1O | 
